# “Also recorded” adds a separate entry of the source. Where two headings read alike, the source gives them in different places. Marks after values point to notes of the source that are not given here.
# Key:
# human α1A‐adrenoceptor [1] = target: T1, human α1A‐adrenoceptor (Homo sapiens, UniProt P35348); experiment: ^3H‐prazosin whole‐cell radioligand binding, CHO‐α1A cells
# T1 construct: expressed in transfected cells; host or cells: CHO-K1
# T1 sequence (P35348 1-466): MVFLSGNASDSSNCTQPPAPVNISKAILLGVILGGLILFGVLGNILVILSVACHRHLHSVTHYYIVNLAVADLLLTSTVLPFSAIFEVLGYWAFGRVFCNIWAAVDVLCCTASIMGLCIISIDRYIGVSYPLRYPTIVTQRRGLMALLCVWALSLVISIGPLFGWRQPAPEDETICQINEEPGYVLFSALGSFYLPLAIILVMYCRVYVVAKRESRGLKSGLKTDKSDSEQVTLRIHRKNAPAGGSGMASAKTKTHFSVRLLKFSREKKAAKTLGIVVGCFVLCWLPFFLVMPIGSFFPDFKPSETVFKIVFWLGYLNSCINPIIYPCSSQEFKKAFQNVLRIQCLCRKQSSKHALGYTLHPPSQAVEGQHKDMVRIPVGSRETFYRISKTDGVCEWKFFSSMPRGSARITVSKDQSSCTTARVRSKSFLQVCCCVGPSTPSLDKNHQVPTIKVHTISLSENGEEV
# human α1B‐adrenoceptor [2] = target: T2, human α1B‐adrenoceptor (Homo sapiens, UniProt P35368); experiment: ^3H‐prazosin whole‐cell radioligand binding, CHO‐α1B cells
# T2 construct: expressed in transfected cells; host or cells: CHO-K1
# T2 sequence (P35368 1-520): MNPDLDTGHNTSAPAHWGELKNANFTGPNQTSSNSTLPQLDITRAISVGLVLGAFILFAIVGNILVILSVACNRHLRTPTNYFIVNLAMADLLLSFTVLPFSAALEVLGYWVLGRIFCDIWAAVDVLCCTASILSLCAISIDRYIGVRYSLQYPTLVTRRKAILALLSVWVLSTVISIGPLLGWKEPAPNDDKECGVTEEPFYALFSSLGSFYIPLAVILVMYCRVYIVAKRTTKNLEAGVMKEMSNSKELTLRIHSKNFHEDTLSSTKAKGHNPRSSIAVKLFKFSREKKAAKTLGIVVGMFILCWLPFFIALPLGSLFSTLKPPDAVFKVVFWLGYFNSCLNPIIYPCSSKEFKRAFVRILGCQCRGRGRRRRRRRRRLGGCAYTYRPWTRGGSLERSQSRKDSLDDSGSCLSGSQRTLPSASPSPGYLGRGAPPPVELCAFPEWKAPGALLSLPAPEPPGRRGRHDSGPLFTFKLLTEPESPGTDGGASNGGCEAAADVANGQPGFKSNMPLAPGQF
# [3] = target: T3, human α1D‐adrenoceptor (full length) (Homo sapiens, UniProt P25100); experiment: ^3H‐prazosin whole‐cell radioligand binding, CHO‐α1D cells
# T3 construct: human α1D‐adrenoceptor (full length) were used; expressed in transfected cells; host or cells: CHO-K1
# T3 sequence (P25100 1-572): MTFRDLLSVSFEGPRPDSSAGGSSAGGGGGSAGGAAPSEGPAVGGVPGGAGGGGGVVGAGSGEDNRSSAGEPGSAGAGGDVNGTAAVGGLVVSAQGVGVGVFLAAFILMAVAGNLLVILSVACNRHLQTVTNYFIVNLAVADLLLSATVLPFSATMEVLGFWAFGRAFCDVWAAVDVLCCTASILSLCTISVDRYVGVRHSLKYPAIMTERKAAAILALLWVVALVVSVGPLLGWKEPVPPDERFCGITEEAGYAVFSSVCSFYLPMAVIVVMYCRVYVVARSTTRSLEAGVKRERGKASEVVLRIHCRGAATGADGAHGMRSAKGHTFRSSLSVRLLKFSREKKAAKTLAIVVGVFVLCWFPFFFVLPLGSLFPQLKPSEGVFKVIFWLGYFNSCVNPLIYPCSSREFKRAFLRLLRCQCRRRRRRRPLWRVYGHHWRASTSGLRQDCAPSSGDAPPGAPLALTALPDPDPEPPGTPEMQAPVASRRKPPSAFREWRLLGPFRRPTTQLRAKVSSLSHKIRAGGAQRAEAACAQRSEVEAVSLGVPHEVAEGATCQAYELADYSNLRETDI
# human α1A‐adrenoceptor [4] = target: T1, human α1A‐adrenoceptor; experiment: Intracellular free calcium mobilization, CHO‐α1A cells; format: cell-based
# human α1B‐adrenoceptor [5] = target: T2, human α1B‐adrenoceptor; experiment: Intracellular free calcium mobilization, CHO‐α1B cells; format: cell-based
# [6] = target: T3, human α1D‐adrenoceptor (full length); experiment: Intracellular free calcium mobilization, CHO‐α1D cells; format: cell-based
# [7] = system: parental CHO cell line without any transfected receptors; experiment: Intracellular calcium mobilization, parent CHO cells without transfected receptors; format: cell-based, Chinese hamster; settings: Cricetulus griseus; CHO cells without transfected receptors; response at maximum concentration used (c2), as % of ionomycin (10μM) response; mean ± s.e.m.; read-out: Intracellular calcium release % ionomycin
# human α1A‐adrenoceptor [8] = target: T1, human α1A‐adrenoceptor; experiment: ERK1/2‐phosphorylation (Surefire Alphascreen), CHO‐α1A cells; format: cell-based
# human α1B‐adrenoceptor [9] = target: T2, human α1B‐adrenoceptor; experiment: ERK1/2‐phosphorylation (Surefire Alphascreen), CHO‐α1B cells; format: cell-based
# [10] = target: T3, human α1D‐adrenoceptor (full length); experiment: ERK1/2‐phosphorylation (Surefire Alphascreen), CHO‐α1D cells; format: cell-based
# [11] = system: parental CHO cell line without any transfected receptors; experiment: ERK1/2‐phosphorylation, parent CHO cells without transfected receptors; format: cell-based, Chinese hamster
# human α1A‐adrenoceptor [12] = target: T1, human α1A‐adrenoceptor; experiment: ^3H‐cAMP accumulation, CHO‐α1A cells; format: cell-based
# human α1B‐adrenoceptor [13] = target: T2, human α1B‐adrenoceptor; experiment: ^3H‐cAMP accumulation, CHO‐α1B cells; format: cell-based; settings: CHO‐α1B cells
# [14] = target: T3, human α1D‐adrenoceptor (full length); experiment: ^3H‐cAMP accumulation, CHO‐α1D cells; format: cell-based; settings: cAMP accumulation without forskolin
# human α1A‐adrenoceptor [15] = target: T1, human α1A‐adrenoceptor; experiment: ^3H‐cAMP accumulation in the presence of 10 μM forskolin, CHO‐α1A cells; format: cell-based
# human α1B‐adrenoceptor [16] = target: T2, human α1B‐adrenoceptor; experiment: ^3H‐cAMP accumulation in the presence of 10 μM forskolin, CHO‐α1B cells; format: cell-based
# [17] = target: T3, human α1D‐adrenoceptor (full length); experiment: ^3H‐cAMP accumulation in the presence of 10 μM forskolin, CHO‐α1D cells; format: cell-based
# [18] = system: parental CHO cell line without any transfected receptors; experiment: Forskolin‐stimulated cAMP accumulation, parent CHO cells without transfected receptors; format: cell-based, Chinese hamster
# [19] = system: parental CHO cell line without any transfected receptors; experiment: ^3H‐cAMP accumulation, parent CHO cells without transfected receptors; format: cell-based, Chinese hamster; settings: parent CHO cells; 10μM; n=6
compound,measurement,setting,value
Cc1cc(C(C)(C)C)cc(C)c1CC1=NCCN1 [Xylometazoline],Affinity selectivity ratio α1A vs α1B,human α1A‐adrenoceptor [1],60.3 fold
same,Affinity selectivity ratio α1A vs α1D,human α1A‐adrenoceptor [1],51.3 fold
same,Kd,human α1A‐adrenoceptor [1],115 nM
same,Kd,human α1B‐adrenoceptor [2],6920 nM
same,Kd,"human α1B‐adrenoceptor [2]; Log KD, ^3H‐prazosin binding",6920 nM
same,Affinity selectivity ratio α1B vs α1D,[3],1.2 fold
same,Kd,[3],5890 nM
same,Kd,[3]; 3H‐prazosin binding Log KD,5890 nM
same,EC50,human α1A‐adrenoceptor [4],2.51 nM
same,Intracellular calcium release % ionomycin,human α1A‐adrenoceptor [4],64.4 ± 2.7%
same,Log efficacy ratio KD /EC50,human α1A‐adrenoceptor [4],1.66
same,Intracellular calcium release % Ionomycin at 100 µM,human α1B‐adrenoceptor [5],13.6 ± 3.3%
same,Intracellular calcium release % Ionomycin at 100 µM,[6],18.6 ± 2.0%
same,Emax,[7],15.8 ± 2.7%
same,EC50,human α1A‐adrenoceptor [8],3.8 nM
same,ERK1/2‐phosphorylation % PDBu,human α1A‐adrenoceptor [8],98.8 ± 5.1%
same,ERK1/2‐phosphorylation potency in CHO‐α1A cells relative to untransfected parent CHO cells,human α1A‐adrenoceptor [8],> 10 fold
same,ERK1/2‐phosphorylation % PDBu,human α1B‐adrenoceptor [9],66.2 ± 6.0%
same,ERK1/2‐phosphorylation % PDBu,[10],70.8 ± 7.8%
same,Emax,"[11]; Cricetulus griseus, CHO cells without transfected receptors, maximal response as % of PDBu (10μM) response, mean ± s.e.m., read-out: ERK1/2-phosphorylation % PDBu",56.2 ± 5.9%
same,EC50,"[11]; Cricetulus griseus, CHO cells without transfected receptors, mean ± s.e.m., read-out: ERK1/2-phosphorylation Log EC50 (converted)",89.1 nM
same,ERK1/2‐phosphorylation response in parent CHO cells,[11]; untransfected cells,stimulated ERK1/2‐phosphorylation responses
same,EC50,human α1A‐adrenoceptor [12],126 nM
same,cAMP accumulation % forskolin,"human α1A‐adrenoceptor [12]; CHO‐α1A cells, % of 10 µM forskolin response",32.4 ± 5.7%
same,cAMP accumulation Log EC50,human α1B‐adrenoceptor [13],No response
same,cAMP accumulation % forskolin,human α1B‐adrenoceptor [13]; % forskolin maximum response,No response
same,cAMP Log EC50,[14],No response
same,EC50,human α1A‐adrenoceptor [15],30.2 nM
same,cAMP accumulation (in presence of forskolin) Fold increase,"human α1A‐adrenoceptor [15]; CHO‐α1A cells, fold increase of the forskolin response",2.00 ± 0.09 fold
same,IC50,human α1B‐adrenoceptor [16],9.12 nM
same,% inhibition of forskolin‐stimulated cAMP,"human α1B‐adrenoceptor [16]; CHO‐α1B cells, footnote c",13.5 ± 1.8%a
same,"Effect on cAMP accumulation in the presence of forskolin, CHO‐α1B cells",human α1B‐adrenoceptor [16]; not α1‐mediated,decrease in cAMP accumulation
same,IC50,[17],29.5 nM
same,% inhibition of forskolin‐stimulated cAMP,"[17]; CHO‐α1D cells, decrease in forskolin‐stimulated cAMP accumulation (footnote b)",*26.5 ± 1.1%
same,"Effect on cAMP accumulation in the presence of forskolin, CHO‐α1D cells",[17]; not α1‐mediated,decrease in cAMP accumulation; also recorded: inhibitory cAMP response
same,% inhibition of forskolin-stimulated cAMP,"[18]; CHO cells without transfected receptors, footnote *: % inhibition",21.0 ± 2.4%*
same,IC50,"[18]; Cricetulus griseus, CHO cells without transfected receptors, footnote *: log IC50, read-out: log IC50, decrease in forskolin-stimulated cAMP accumulation (converted)",66.1 nM
same,"Effect on cAMP accumulation in the presence of forskolin, parent cells",[18]; untransfected cells,decrease in cAMP accumulation
C=C[C@@]1(C)CC(=O)[C@]2(O)[C@@]3(C)[C@@H](O)CCC(C)(C)[C@@H]3[C@H](O)[C@H](OC(C)=O)[C@@]2(C)O1 [forskolin],cAMP accumulation response fold over basal,[19],39.5 ± 3.2 fold over basal

# From publication PMC8343220, “The selectivity of α‐adrenoceptor agonists for the human α1A, α1B, and α1D‐adrenoceptors” (Pharmacology Research & Perspectives, 2021)
